Experimental data published in patent US11096925B2, “Indole derivatives for biofilm disruption and inhibition” (LIFE MATTERS LTD., priority 2015, dated 2021).
“Also recorded” adds a separate entry of the source.

Experiments:
[1] = test system: Caenorhabditis elegans infected by Pseudomonas aeruginosa; experiment: C. elegans killing assay; format: in vivo; conditions: SYTOX Orange stain within 24 h
Protocol: (§1) FIGS. 3A-B show effect on, P. aeruginosa PA01 pathogenesis. (A) Inhibition of virulence factors production in P. aeruginosa PA01, which were grown in the presence of 50 μM NN or DIV. Tetracycline is used as positive control. Results are based on OD measurements distinctive to each factor and normalized to bacterial growth at OD600 nm. Error bars represent SD of three independent repetitions. (B) C. elegans killing assay assed by SYTOX Orange stain within 24 h.
(§2) Driven by an arsenal of virulence factors added to the biofilm mode of growth, P. aeruginosa PA01 pathogenesis depends on the type of the infection. Therefore, both compounds were tested for their abilities to suppress prominent virulence determinants (FIG. 3A). […] Measuring nematode survivorship following exposure to P. aeruginosa in the absence and presence of modulating compounds, therefore, provides a good model for assessing the effectiveness of the novel compounds on the pathogenesis of the bacteria.

A. baumannii [2] = experiment: Biofilm formation under static conditions, CLSM with Live/Dead staining; format: cell-based, Acinetobacter baumannii; conditions: for density of attached cells (biofilm) / mortality of the bacterial cells: 50 μM; for density of attached cells (biofilm): 18 h static incubation at 37° C.; for mortality of the bacterial cells: compared with DMSO control
Protocol: (§3) FIGS. 1A-B show prevention of biofilm formation. Confocal laser scanning micrographs (CLSM) of P. aeruginosa PA01 (A) and A. baumannii (B) formed in glass-bottomed 96 well plates after 18 h of static incubation at 37° C. Cultures were grown in the presence of either 50 μM DIV or NN, or an equivalent amount of DMSO for control. Biofilms were stained using the Live/Dead bacterial viability kit. Live, dead and total bio-volumes (μm^3/μm^2) were calculated based on image analysis and data from the IMARIS software. Bars indicate standard deviations for triplicate sets of experiments.
(§4) FIGS. 5A-D show biofilm attenuation of the pathogens P. stuartii (A), S. marcescens (B), A. baumannii (C) and P. aeruginosa PA01 (D). Cultures were grown in the presence of either 50 μM DIM or an equivalent amount of DMSO for control. Biofilms were stained with the LIVE/DEAD bacterial viability kit. For each species and per treatment, live, dead and total bio-volumes (μm^3/μm^2) were calculated based on image analysis and data from the IMARIS software, and % biofilm inhibition was calculated based on live bio-volumes. The results are the average values of analysis of at least three micrographs.
(§5) Bioflims of P. aeruginosa and A. baumanii that were developed on glass slides were determined using confocal scanning laser microscopy (CSLM) (FIG. 1). Accordingly, the density of the biofilms prior to and following treatment by NN and DIV was measured.
(§6) The current study investigated the influence of DIM on the biofilm formation process and on the destruction of existing biofilms of several pathogenic gram-negative bacterial strains.

[3] = test system: A549 Human Lung Cell line infected by P. aeruginosa; experiment: Cytotoxicity and apoptosis of A549 cells infected with pre-treated bacteria, calcein staining; format: cell-based; conditions: bacteria pre-treated with compound, 24 h
Protocol: FIGS. 4A-B show reduced adhesion and virulence of P. aeruginosa PA01 in human A549 lung cells model. (A) Cytotoxicity effect and apoptosis of A549 cells by P. aeruginosa PA01 pre-treated with DIV or NN during 24 h. The infection progress was monitored by calcein staining using Operetta screening system. All the experiments were performed in triplicates. (B) Adhesion of P. aeruginosa PA01 (5×10^7 CFU/ml) pre-treated with DIV or NN to A549 cells for 1 hr of incubation. Excess bacteria were removed and the released cells were plated followed CFU counts determination.
In order to test the possible effects of these compounds on higher organisms, we tested NN and DIV on A549 Human Lung Cell line infected by P. aeruginosa. Additional tests were carried out for NN and DIV to assess the effect of this compound to enhance the survival of A549 cells during infection with P. aeruginosa PA01. […] Due the fact that adherence to a humeral cell is considered a crucial step in the bacterial infection initiation process, P. aeruginosa PA01 pre-treated with DIV or NN was tested for its adherence potency to lung epithelial cells A549.

P. aeruginosa PA01 [4] = experiment: Virulence factor production, spectrophotometry of cell-free culture; format: cell-based, Pseudomonas aeruginosa; conditions: for virulence factors production: P. aeruginosa PA01 grown with 50 μM compound
Protocol: as §1
Results are based on OD measurements specific to each factor and normalized to the growth OD of 600 nm. Bars indicate standard deviations for triplicate sets of experiments.
as §2
The basis of P. aeruginosa pathogenicity is an arsenal of virulence determinants designed for survival and proliferation in the host that enable bacterial invasion and the subsequent establishment of infection. The success of this microorganism is largely due to its ability to form intractable biofilms and to produce myriad virulence factors controlled by a quorum-sensing (QS) system.

P. aeruginosa PA01 [5] = experiment: Biofilm formation under static conditions, CLSM with Live/Dead staining; format: cell-based, Pseudomonas aeruginosa; conditions: for density of attached cells (biofilm) / mortality of the bacterial cells: 50 μM; for density of attached cells (biofilm): 18 h static incubation at 37° C.; for mortality of the bacterial cells: compared with DMSO control
Protocol: as §3, §4, §5, §6

[6] = test system: P. aeruginosa PA01 mature biofilm; experiment: Destruction of mature biofilm in flow cell, CLSM; format: cell-based, Pseudomonas aeruginosa; conditions: 72 h biofilm, then 48 h treatment, 50 μM compound, 20 μg/ml tobramycin
Protocol: FIG. 2 depicts destruction of P. aeruginosa PA01 mature biofilm; biofilm formed in a flow cell after 72 h of incubation at 37° C. and 48 h more in the presence of 50 μM NN, 20 μg/ml Tobramycin, and 50 μM NN with 20 μg/ml tobramycin. Biofilms were stained with Live/Dead bacterial viability kit. Quantification of BioVolume; Live, dead and total bio-volumes (μm^3/μm^2) calculated based on image analysis and data from the IMARIS software. The images were acquired from three different areas in each treatment.
FIG. 6. depicts destruction of mature, differentiated biofilm of P. aeruginosa PA01. Statistical analysis of CSLM images of biofilm formed in a flow system after 120 h, and with supplementation of 50 μM DIM, 20 μg/ml Tobramycin and a combined treatment of 50 μM DIM with 20 μg/ml Tobramycin. Biofilms were stained with the LIVE/DEAD bacterial viability kit. Quantification of bio-volume: live, dead and total bio-volumes (μm^3/μm^2) were calculated based on image analysis and data from the IMARIS software.
Dynamic growth conditions in flow cell systems are considered to be representative of the real conditions in humeral tissues, where the pathogen thrives in enriched settings. […] Once the efficiency of the new compounds was tested, we proceeded to assess the efficacy of adding antibiotic treatment to the novel compounds to eradicate biofilm (FIG. 2). […] On the other hand, when treated by both the antibiotic and the NN, the biofilm was eradicated and the bacterial cells died.
To investigate the combined destructive effect of the biofilm inhibitor compound and an antibiotic, P. aeruginosa PA01 was cultured for 72 h in the continuous flow system until a mature biofilm had been established Immediately after its establishment, the biofilm was challenged with DIM and/or the antibiotic tobramycin, the known activity of which is protein synthesis inhibition (FIG. 6).

Erwinia carotovora = experiment: Biofilm formation by plant-associated bacteria, static 96 well plates, CLSM; format: cell-based; conditions: 50 μM, 18 h static
Protocol: Biofilm formed in glass-bottomed 96 well plates after 18 h of static incubation at 37° C. was investigated by confocal laser scanning micrographs (CLSM). Cultures were grown in the presence of either 50 μM DIM or NN, or an equivalent amount of DMSO for control. Biofilms were stained using the Live/Dead bacterial viability kit. Live, dead and total bio-volumes (μm^3/μm^2) were calculated based on image analysis and data from the IMARIS software.
Erwinia carotovora was cultured in glass-bottomed 96 well plates for 18 h in static conditions. The growth medium was provided with either 50 μM DIM or NN and the resulted biofilms was investigated using CSLM.

A. baumannii [7] = experiment: Biofilm formation in dynamic flow-cell system; format: cell-based, Acinetobacter baumannii
Text: (§7) In addition, we tested the anti-biofilm properties of the well-studied anti-cancer compound 3,3′-Diindolylmethane (DIM), a metabolite found in cruciferous vegetables. Inhibition of biofilm establishment by DIM was investigated with different clinical pathogens under static conditions. Biofilm formation by A. baumannii and P. aeruginosa was further tested in a dynamic flow-cell system, in which biofilm inhibition levels of 86% and 76% were obtained, respectively. […] Further examination of the hypothesized synergistic effect obtained by combining conventional antibiotics with the DIM compound may offer a promising strategy for the eradication of biofilm complexes.

P. aeruginosa = experiment: Biofilm formation in dynamic flow-cell system; format: cell-based, Pseudomonas aeruginosa
Text: as §7

P. larvae = conditions: agar diffusion method (Brenda et al., 2010); cited from earlier work
S. marcescens = experiment: Biofilm formation under static conditions, CLSM; format: cell-based, Serratia marcescens; conditions: 50 μM DIM
Protocol: as §4, §6

P. stuartii = experiment: Biofilm formation under static conditions, CLSM; format: cell-based, Providencia stuartii; conditions: 50 μM DIM
Protocol: as §4, §6

c1ccc2c(c1)CC(c1cc3ccccc3[nH]1)N2 (centres unmarked) [DIV, 2-(indolin-2-yl)-1H-indole]
survivorship of C. elegans following exposure to P. aeruginosa [1]: pathogenesis of P. aeruginosa is reduced | density of attached cells (biofilm) (A. baumannii [2]): smaller effects | mortality of the bacterial cells (A. baumannii [2]): negligible mortality | cytotoxicity effect and apoptosis of A549 cells by pre-treated P. aeruginosa PA01 [3]: suspended the cytotoxicity effect and apoptosis killing | virulence factors production (P. aeruginosa PA01 [4]): reduced significantly | density of attached cells (biofilm) (P. aeruginosa PA01 [5]): reduction of density of attached cells | mortality of the bacterial cells (P. aeruginosa PA01 [5]): negligible mortality

NC[C@H]1O[C@H](O[C@H]2[C@H](O)[C@@H](O[C@H]3O[C@H](CO)[C@@H](O)[C@H](N)[C@H]3O)[C@H](N)C[C@@H]2N)[C@H](N)C[C@@H]1O [tobramycin, Tobramycin, reference compound]
destruction of mature biofilm [6]: dense biofilm similar to that of the control | destruction of mature biofilm ([6]; listed as antibiotic): little loss of biofilm

c1ccc2c(c1)ccn2-n1ccc2ccccc21 [NN, 1,1′-Biindole]
survivorship of C. elegans following exposure to P. aeruginosa [1]: significantly increased survivorship | density of attached cells (biofilm) (A. baumannii [2]): smaller effects | mortality of the bacterial cells (A. baumannii [2]): negligible mortality | cytotoxicity effect and apoptosis of A549 cells by pre-treated P. aeruginosa PA01 [3]: suspended the cytotoxicity effect and apoptosis killing | virulence factors production (P. aeruginosa PA01 [4]): reduced significantly | density of attached cells (biofilm) (P. aeruginosa PA01 [5]): reduction of density of attached cells; also recorded: most effective | mortality of the bacterial cells (P. aeruginosa PA01 [5]): negligible mortality | biofilm formation / density of attached cells (Erwinia carotovora): prevents biofilm formation | destruction of mature biofilm [6]: reduced but not eradicated

c1ccc2c(Cc3c[nH]c4ccccc34)c[nH]c2c1 [DIM, di(1H-indol-3-yl)methane]
biofilm inhibition levels (A. baumannii [7]): 86% | biofilm inhibition levels (P. aeruginosa): 76% | antibiotic activity against P. larvae (P. larvae): antibiotic activity | biofilm formation compared to control (A. baumannii [2]; 50 μM DIM, static): substantially reduced biofilms | biofilm formation compared to control (S. marcescens): substantially reduced biofilms | reduction in chitinase production (P. aeruginosa PA01 [4]; 50 μM DIM): 35% | reduction in elastase (P. aeruginosa PA01 [4]; 50 μM DIM): 19% | reduction in protease (P. aeruginosa PA01 [4]; 50 μM DIM): 10% | reduction in pyocyanin (P. aeruginosa PA01 [4]; 50 μM DIM): 21% | reduction in pyoverdine (P. aeruginosa PA01 [4]; 50 μM DIM): 20% | biofilm formation compared to control (P. aeruginosa PA01 [5]; 50 μM DIM, static): substantially reduced biofilms | biofilm formation / density of attached cells (Erwinia carotovora): prevents biofilm formation | biofilm formation compared to control (P. stuartii): substantially reduced biofilms | destruction of mature biofilm [6]: destruction of existing, stable biofilm
